Measurements taken from ChEMBL document CHEMBL4421719, “Modulation of k2p channels” (2016).
pEC50, pIC50: −log10 of the molar value. Active and inactive are the calls of the source. The rule behind the calls is not given here.

How the values were obtained:
[1] = target: T1, Potassium channel subfamily K member 10 (Homo sapiens, UniProt P57789); assay: Activation of K2P10.1 (unknown origin) expressed in Xenopus oocytes assessed as effect on channel currents at -80 mV holding potential by two-electrode voltage clamp assay; assay type: cell-based
T1 sequence (P57789 whole entry): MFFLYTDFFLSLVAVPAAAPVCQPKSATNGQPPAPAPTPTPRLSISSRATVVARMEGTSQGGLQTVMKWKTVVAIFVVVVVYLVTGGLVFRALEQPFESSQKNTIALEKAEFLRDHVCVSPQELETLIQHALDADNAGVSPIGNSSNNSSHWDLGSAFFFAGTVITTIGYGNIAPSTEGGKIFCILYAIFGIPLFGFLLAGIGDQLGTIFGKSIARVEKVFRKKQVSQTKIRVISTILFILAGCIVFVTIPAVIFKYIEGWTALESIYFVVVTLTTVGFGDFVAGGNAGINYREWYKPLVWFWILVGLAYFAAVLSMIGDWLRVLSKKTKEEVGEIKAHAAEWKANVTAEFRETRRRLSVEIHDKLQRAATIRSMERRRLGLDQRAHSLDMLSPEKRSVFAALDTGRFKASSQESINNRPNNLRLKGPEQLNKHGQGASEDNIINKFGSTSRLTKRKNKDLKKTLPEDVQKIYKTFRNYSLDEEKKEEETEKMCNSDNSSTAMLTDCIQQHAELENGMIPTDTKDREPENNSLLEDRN

[2] = organism: Homo sapiens; assay: Selectivity index, ratio of IC50 for inhibition of Trk1p (unknown origin) expressed in SGY1528 yeast cells assessed as inhibition of cell growth by alamar blue dye based assay to IC50 for inhibition of K2P2.1 (unknown origin) expressed in SGY1528 yeast cells assessed as inhibition of cell growth by alamar blue dye based assay
[3] = target: T2, Potassium channel subfamily K member 2 (Homo sapiens) (UniProt O95069); assay: Inhibition of K2P2.1 (unknown origin) expressed in SGY1528 yeast cells assessed as inhibition of cell growth at 10 uM incubated for 24 hrs by alamar blue dye based assay relative to control
T2 sequence (whole entry): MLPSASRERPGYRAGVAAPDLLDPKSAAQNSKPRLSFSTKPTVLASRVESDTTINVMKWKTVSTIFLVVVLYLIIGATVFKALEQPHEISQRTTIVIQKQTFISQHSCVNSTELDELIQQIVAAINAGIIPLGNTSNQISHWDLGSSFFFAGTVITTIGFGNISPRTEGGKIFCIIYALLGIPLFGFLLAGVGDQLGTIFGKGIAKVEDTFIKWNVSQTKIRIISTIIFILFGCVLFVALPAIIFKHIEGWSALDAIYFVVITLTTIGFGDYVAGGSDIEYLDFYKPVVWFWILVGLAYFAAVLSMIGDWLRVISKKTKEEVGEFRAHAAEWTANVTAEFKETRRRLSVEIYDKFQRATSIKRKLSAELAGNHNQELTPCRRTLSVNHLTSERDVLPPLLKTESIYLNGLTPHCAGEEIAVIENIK

[4] = target: T2, Potassium channel subfamily K member 2 (Homo sapiens); assay: Activation of K2P2.1 (unknown origin) expressed in Xenopus oocytes assessed as effect on channel currents at +40 mV holding potential at 400 uM by two-electrode voltage clamp assay; assay type: cell-based
[5] = target: T2, Potassium channel subfamily K member 2 (Homo sapiens); assay: Reversible activation of K2P2.1 (unknown origin) expressed in Xenopus oocytes assessed as effect on channel currents at 100 uM at -80 mV holding potential by two-electrode voltage clamp assay relative to control; assay type: cell-based
[6] = target: Potassium channel subfamily K member 3 (Homo sapiens) (UniProt O14649); assay: Activation of K2P3.1 (unknown origin) expressed in Xenopus oocytes assessed as effect on channel currents at -80 mV holding potential by two-electrode voltage clamp assay relative to control; assay type: cell-based
Potassium channel subfamily K member 3 (Homo sapiens), sequence (O14649 whole entry, looked up): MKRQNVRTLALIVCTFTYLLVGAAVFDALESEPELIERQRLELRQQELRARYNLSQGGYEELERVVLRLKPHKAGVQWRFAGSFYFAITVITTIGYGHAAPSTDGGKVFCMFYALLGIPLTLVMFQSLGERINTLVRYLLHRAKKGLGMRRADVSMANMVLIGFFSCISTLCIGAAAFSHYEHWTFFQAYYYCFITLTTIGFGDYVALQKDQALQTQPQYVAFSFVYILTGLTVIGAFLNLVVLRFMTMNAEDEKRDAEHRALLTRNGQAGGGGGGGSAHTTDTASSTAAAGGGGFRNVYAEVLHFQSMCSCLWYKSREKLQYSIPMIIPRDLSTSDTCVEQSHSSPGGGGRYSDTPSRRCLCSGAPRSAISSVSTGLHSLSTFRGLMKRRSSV

[7] = target: Potassium voltage-gated channel subfamily KQT member 2 (Homo sapiens) (UniProt O43526); assay: Activation of Kv7.2 (unknown origin) expressed in Xenopus oocytes assessed as effect on channel currents at -80 mV holding potential by two-electrode voltage clamp assay relative to control; assay type: cell-based
Potassium voltage-gated channel subfamily KQT member 2 (Homo sapiens), sequence (O43526 whole entry): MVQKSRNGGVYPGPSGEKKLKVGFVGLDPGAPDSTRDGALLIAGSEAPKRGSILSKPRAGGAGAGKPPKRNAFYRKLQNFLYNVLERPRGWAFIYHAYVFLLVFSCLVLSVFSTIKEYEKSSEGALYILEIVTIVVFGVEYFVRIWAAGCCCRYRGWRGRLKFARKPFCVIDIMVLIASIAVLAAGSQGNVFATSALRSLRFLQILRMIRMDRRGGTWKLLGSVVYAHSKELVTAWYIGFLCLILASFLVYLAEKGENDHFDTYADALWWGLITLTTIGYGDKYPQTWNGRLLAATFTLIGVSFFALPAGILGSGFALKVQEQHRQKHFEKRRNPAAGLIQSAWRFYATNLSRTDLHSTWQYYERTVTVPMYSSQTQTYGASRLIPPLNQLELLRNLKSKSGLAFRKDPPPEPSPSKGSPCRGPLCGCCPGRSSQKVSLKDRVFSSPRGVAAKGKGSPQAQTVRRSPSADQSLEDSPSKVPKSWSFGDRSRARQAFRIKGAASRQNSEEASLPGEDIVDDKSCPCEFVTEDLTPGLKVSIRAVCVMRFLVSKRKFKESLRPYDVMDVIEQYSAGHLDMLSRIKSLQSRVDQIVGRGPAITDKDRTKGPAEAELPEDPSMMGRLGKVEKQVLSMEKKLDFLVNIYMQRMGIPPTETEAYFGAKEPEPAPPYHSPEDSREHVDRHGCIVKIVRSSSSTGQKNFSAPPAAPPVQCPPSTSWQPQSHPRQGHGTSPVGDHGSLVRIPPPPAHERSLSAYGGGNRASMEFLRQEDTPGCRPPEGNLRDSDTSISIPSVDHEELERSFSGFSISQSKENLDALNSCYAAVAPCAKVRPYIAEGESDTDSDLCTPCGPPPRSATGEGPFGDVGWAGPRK

[8] = target: T2, Potassium channel subfamily K member 2 (Homo sapiens); assay: Activation of K2P2.1 (unknown origin) expressed in Xenopus oocytes assessed as effect on channel currents at -80 mV holding by two-electrode voltage clamp assay relative to control; assay type: cell-based
[9] = target: Potassium voltage-gated channel subfamily KQT member 2 (Homo sapiens) (UniProt O43526); assay: Activation of Kv7.2 (unknown origin) expressed in Xenopus oocytes assessed as effect on channel currents at 100 uM at -80 mV holding potential by two-electrode voltage clamp assay relative to control; assay type: cell-based
[10] = target: T3, Potassium channel subfamily K member 10 (Homo sapiens) (UniProt P57789); assay: Activation of K2P10.1 (unknown origin) expressed in Xenopus oocytes assessed as effect on channel currents at 500 uM at -80 mV holding potential by two-electrode voltage clamp assay; assay type: cell-based
T3 sequence (whole entry): T1 sequence (P57789 whole entry)

[11] = target: Potassium channel subfamily K member 3 (Homo sapiens) (UniProt O14649); assay: Activation of K2P3.1 (unknown origin) expressed in Xenopus oocytes assessed as effect on channel currents at -80 mV holding potential at 500 uM by two-electrode voltage clamp assay relative to control; assay type: cell-based
[12] = target: Potassium voltage-gated channel subfamily KQT member 2 (Homo sapiens) (UniProt O43526); assay: Activation of Kv7.2 (unknown origin) expressed in Xenopus oocytes assessed as effect on channel currents at 500 uM at -80 mV holding potential by two-electrode voltage clamp assay relative to control; assay type: cell-based
[13] = target: T2, Potassium channel subfamily K member 2 (Homo sapiens); assay: Activation of K2P2.1 (unknown origin) expressed in Xenopus oocytes assessed as effect on channel currents at 200 uM at -80 mV holding potential by two-electrode voltage clamp assay; assay type: cell-based
[14] = target: T2, Potassium channel subfamily K member 2 (Homo sapiens); assay: Activation of K2P2.1 (unknown origin) expressed in Xenopus oocytes assessed as effect on channel currents at 500 uM at -80 mV holding potential by two-electrode voltage clamp assay; assay type: cell-based
[15] = target: T2, Potassium channel subfamily K member 2 (Homo sapiens); assay: Activation of K2P2.1 (unknown origin) expressed in Xenopus oocytes assessed as effect on channel currents at +40 mV holding potential at 100 uM by two-electrode voltage clamp assay; assay type: cell-based
[16] = target: T2, Potassium channel subfamily K member 2 (Homo sapiens); assay: Inhibition of K2P2.1 (unknown origin) expressed in Xenopus oocytes assessed as effect on channel currents at -80 mV holding potential at 100 uM by two-electrode voltage clamp assay relative to control; assay type: cell-based
[17] = target: T4, Potassium channel subfamily K member 2 (Homo sapiens, UniProt O95069); assay: Inhibition of K2P2.1 (unknown origin) expressed in Xenopus oocytes assessed as effect on channel currents at -80 mV holding potential by two-electrode voltage clamp assay; assay type: cell-based
T4 sequence (O95069 whole entry): T2 sequence (whole entry)

[18] = target: T2, Potassium channel subfamily K member 2 (Homo sapiens); assay: Antagonist activity at K2P2.1 (unknown origin) expressed in Xenopus oocytes assessed as suppression of channel currents at 20 uM at -80 mV holding potential by two-electrode voltage clamp assay relative to control; assay type: cell-based

Row | pEC50 [1] | growth inhibition (GI) [3] [%] | Activity [4] | fold change (FC) [5] | Activity [6] | Activity [7] | Emax [8] | Activity [9] | Emax [10] | Emax [11] | Emax [12] | Activity [13] | Activity [14] | Activity [15] | inhibition [16] [%] | pIC50 [17] | inhibition [18] [%] | Compound | Ratio IC50 [2]
1 | ≤ 3.60 | 66 | Active | < 11 | inactive | inactive | 11 | inactive | 10.1 | 1.2 | 1.8 | Active | Active | – | – | – | – | O=C(O)CCn1c2ccc(Cl)cc2c2cc(Cl)ccc21 | < 2
2 | – | 66 | – | – | – | – | – | – | – | – | – | – | – | Active | 70 | 4.68 | 30 | Cc1cccc(-n2ncc3c(NCCc4ccccc4)ncnc32)c1 | < 2
